Activity calls are given as the source filed them. The rule behind the calls is not given here.
Assays:
[1] = test system: MCF7; test: Cytotoxicity against ER-positive human MCF7 cells assessed as growth inhibition at 10 to 20 uM after 72 hrs by MTT assay; assay type: functional, cell-based
[2] = test system: NIH3T3; test: Cytotoxicity against mouse 3T3 cells assessed as cell viability at 5 to 20 uM after 72 hrs by MTT assay; assay type: cell-based; settings: nih3t3, 72 h
[3] = Stability of the compound in simulated gastric/intestinal fluid assessed as compound remaining at 10 mM after 6 hrs by UV/Vis spectroscopic analysis in presence of porcine pepsin and pancreatin relative to control; assay type: physicochemical; settings: pig; read-out: Stability
[4] = test system: SK-BR-3; test: Cytotoxicity against ER-negative human SKBR3 cells assessed as growth inhibition at 20 uM after 72 hrs by MTT assay; assay type: functional, cell-based
[5] = test system: MCF7; test: Cytotoxicity against ER-positive human MCF7 cells assessed as growth inhibition after 72 hrs by MTT assay; assay type: functional, cell-based; settings: for IC50: MCF7, 72 h
[6] = test system: SK-BR-3; test: Cytotoxicity against ER-negative human SKBR3 cells assessed as growth inhibition at 10 to 20 uM after 72 hrs by MTT assay; assay type: functional, cell-based
[7] = test system: MCF7; test: Cytotoxicity against ER-positive human MCF7 cells assessed as growth inhibition at 20 uM after 72 hrs by MTT assay; assay type: functional, cell-based
[8] = test system: MCF7; test: Cytotoxicity against ER-positive human MCF7 cells assessed as growth inhibition at 1 uM after 72 hrs by MTT assay; assay type: functional, cell-based
[9] = test system: SK-BR-3; test: Cytotoxicity against ER-negative human SKBR3 cells assessed as growth inhibition after 72 hrs by MTT assay; assay type: functional, cell-based; settings: for IC50: SK-BR-3, 72 h

Row | SMILES | remaining at 6 h, 10000 µM [3] | growth inhibition (GI) [1] | Activity [2] | growth inhibition (GI) [4] | growth inhibition (GI) [5] | growth inhibition (GI) [6] | growth inhibition (GI) [7] | growth inhibition (GI) [8] | IC50 [5] | IC50 [9] | growth inhibition (GI) [9]
1 | O=C1C(Cl)C(c2ccccc2)N1c1ccc(Cl)cc1 (stereo unspecified) | 80% |  | Non-toxic |  | Dose-dependent effect | Active |  |  |  |  | 
2 | O=C1C(Cl)C(c2ccccc2)N1c1ccccc1 (stereo unspecified) | 78% |  | Non-toxic |  |  | Active |  | inactive |  |  | 
3 | Oc1ccc(/C=C\c2cc(O)cc(O)c2)cc1 [CIS-RESVERATROL] | 31% |  |  |  |  |  |  |  | 28.4 µM | 41.2 µM | 
4 | O=C1C(Cl)C(c2ccc(Br)cc2)N1c1ccc(Br)cc1 (stereo unspecified) | 87% |  | Non-toxic |  | Dose-dependent effect |  |  |  | 16.7 µM | 11.1 µM | Dose-dependent effect
5 | O=C1C(Cl)C(c2ccc(Cl)cc2)N1c1ccc(I)cc1 (stereo unspecified) | 70% |  | Non-toxic |  | Dose-dependent effect |  |  |  | 11.8 µM | 9.51 µM | Dose-dependent effect

Second part, led by results:

Row | remaining at 6 h, 10000 µM [3] | SMILES | growth inhibition (GI) [1] | Activity [2] | growth inhibition (GI) [4] | growth inhibition (GI) [5] | growth inhibition (GI) [6] | growth inhibition (GI) [7] | growth inhibition (GI) [8] | IC50 [5] | IC50 [9] | growth inhibition (GI) [9]
6 | 79% | Cc1ccc(C2C(Cl)C(=O)N2c2ccc(C)cc2)cc1 (stereo unspecified) | inactive | Non-toxic | Active |  |  |  |  |  |  | 
7 | 83% | O=C1C(Cl)C(c2ccc(Cl)cc2)N1c1ccccc1 (stereo unspecified) |  | Non-toxic |  |  | Active | Active |  |  |  | 
